SMILES strings stand for the structures. Where only a bound is given, the exact number is not on record here.

Chain of recombinant human integrin αVβ6 (P06756 31-992): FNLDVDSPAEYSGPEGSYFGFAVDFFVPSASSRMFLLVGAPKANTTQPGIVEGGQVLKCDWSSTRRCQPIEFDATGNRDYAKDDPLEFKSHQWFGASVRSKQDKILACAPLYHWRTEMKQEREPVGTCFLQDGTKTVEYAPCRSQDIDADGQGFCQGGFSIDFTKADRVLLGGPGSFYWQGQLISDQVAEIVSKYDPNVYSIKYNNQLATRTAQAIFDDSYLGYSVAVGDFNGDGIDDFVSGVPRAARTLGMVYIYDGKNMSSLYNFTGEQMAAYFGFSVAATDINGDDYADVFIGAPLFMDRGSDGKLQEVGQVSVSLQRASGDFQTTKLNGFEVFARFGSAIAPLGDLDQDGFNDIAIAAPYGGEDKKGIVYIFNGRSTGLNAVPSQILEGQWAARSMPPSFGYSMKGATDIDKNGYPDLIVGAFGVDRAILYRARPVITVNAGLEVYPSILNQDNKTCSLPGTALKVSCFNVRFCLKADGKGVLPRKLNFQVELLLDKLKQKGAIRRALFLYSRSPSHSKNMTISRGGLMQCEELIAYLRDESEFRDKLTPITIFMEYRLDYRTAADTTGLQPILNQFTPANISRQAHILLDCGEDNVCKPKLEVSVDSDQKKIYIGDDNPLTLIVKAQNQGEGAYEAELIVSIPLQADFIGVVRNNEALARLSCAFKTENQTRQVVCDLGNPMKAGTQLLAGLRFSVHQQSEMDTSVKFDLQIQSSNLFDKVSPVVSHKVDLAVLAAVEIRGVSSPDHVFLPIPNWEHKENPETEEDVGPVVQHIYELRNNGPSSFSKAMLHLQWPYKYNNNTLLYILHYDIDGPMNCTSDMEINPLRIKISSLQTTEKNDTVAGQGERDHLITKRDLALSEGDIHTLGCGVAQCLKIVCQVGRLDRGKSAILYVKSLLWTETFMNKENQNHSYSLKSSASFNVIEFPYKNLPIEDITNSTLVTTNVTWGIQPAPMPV
Chain of recombinant human integrin αVβ6 (P18564 22-707): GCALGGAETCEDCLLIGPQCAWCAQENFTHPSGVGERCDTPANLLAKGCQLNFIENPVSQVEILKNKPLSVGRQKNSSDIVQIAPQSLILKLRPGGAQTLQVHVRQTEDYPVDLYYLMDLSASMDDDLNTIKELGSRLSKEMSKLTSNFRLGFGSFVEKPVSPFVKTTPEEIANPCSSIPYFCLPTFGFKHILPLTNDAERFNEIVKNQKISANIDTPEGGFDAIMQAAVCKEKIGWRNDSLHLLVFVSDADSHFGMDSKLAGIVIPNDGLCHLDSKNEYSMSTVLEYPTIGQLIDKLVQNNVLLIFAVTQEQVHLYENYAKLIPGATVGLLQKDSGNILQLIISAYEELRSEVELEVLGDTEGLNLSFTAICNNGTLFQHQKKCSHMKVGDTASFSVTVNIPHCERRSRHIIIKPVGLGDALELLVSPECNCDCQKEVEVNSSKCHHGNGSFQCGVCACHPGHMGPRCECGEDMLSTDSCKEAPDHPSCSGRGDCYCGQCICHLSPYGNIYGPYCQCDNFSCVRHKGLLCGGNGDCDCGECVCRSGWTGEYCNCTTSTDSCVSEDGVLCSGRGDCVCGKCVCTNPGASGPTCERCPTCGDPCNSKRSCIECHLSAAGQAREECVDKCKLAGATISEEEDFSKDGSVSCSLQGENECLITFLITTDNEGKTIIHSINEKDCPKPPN

This assay has as its target recombinant human integrin αVβ6 (Homo sapiens (Human), UniProt P06756+P18564). In words: Solid phase integrin αVβ6 binding assay. Conditions: inhibition of recombinant TGFβ1 LAP binding to coated integrin, IC50 presented in four ranges, read-out: αvβ6 Inhibition IC50 (nM) - range. Put shortly: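 Plates coated with recombinant human αVβ6 (2 μg/mL) and blocked; compounds competed with TGFβ1 LAP (0.67 μg/mL) in Mn2+ (0.5 mM)/BSA/sucrose TBS for 2 h at 25° C. Bound LAP detected by biotin anti-LAP and peroxidase-streptavidin; IC50 by four-parameter logistic fit.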
By IC50 is commonly meant the concentration at which inhibition is half-maximal. As to `CC(C)(O)CN(CCCCc1ccc2c(n1)NCCC2)CC[C@H](Nc1ccncn1)C(=O)O` [Compound 4, (S)-4-((2-hydroxy-2-methylpropyl) (4-(5,6,7,8-tetrahydro-1,8-naphthyridin-2-yl)butyl)amino)-2-(pyrimidin-4-ylamino) butanoic Acid], the IC50 was in the range of 50 to 250 nM.

As to `COC[C@@H](F)CN(CCCCc1ccc2c(n1)NCCC2)CC[C@H](Nc1ncncc1-c1ccccc1)C(=O)O` [Compound 110, (S)-4-(((S)-2-fluoro-3-methoxypropyl) (4-(5,6,7,8-tetrahydro-1,8-naphthyridin-2-yl)butyl)amino)-2-((5-phenylpyrimidin-4-yl)amino) butanoic Acid], the IC50 was < 50 nM.

On to `CO[C@H](C)CN(CCCCc1ccc2c(n1)NCCC2)CC[C@H](Nc1nc(C)nc2cc(F)ccc12)C(=O)O` [Compound 65, (S)-2-((7-fluoro-2-methylquinazolin-4-yl)amino)-4-(((R)-2-methoxypropyl) (4-(5,6,7,8-tetrahydro-1,8-naphthyridin-2-yl)butyl)amino) butanoic Acid], for which the IC50 is < 50 nM.

As to `CS(=O)(=O)CCN(CCCCc1ccc2c(n1)NCCC2)CC[C@H](Nc1ncc(Br)cn1)C(=O)O` [Compound 103, (S)-2-((5-bromopyrimidin-2-yl)amino)-4-((2-(methylsulfonyl)ethyl) (4-(5,6,7,8-tetrahydro-1,8-naphthyridin-2-yl)butyl)amino) butanoic Acid], the IC50 is > 1000 nM.

For `O=C(O)[C@H](CCN(CCCCc1ccc2c(n1)NCCC2)C1CC(F)(F)C1)Nc1ncnc2ccccc12` [Compound 9, (S)-4-((3,3-difluorocyclobutyl) (4-(5,6,7,8-tetrahydro-1,8-naphthyridin-2-yl)butyl)amino)-2-(quinazolin-4-ylamino) butanoic Acid], the IC50 is > 1000 nM.

As for `COC[C@@H](F)CN(CCCCc1ccc2c(n1)NCCC2)CC[C@H](Nc1ncc(Br)cn1)C(=O)O` [Compound 86, (S)-2-((5-bromopyrimidin-2-yl)amino)-4-(((S)-2-fluoro-3-methoxypropyl) (4-(5,6,7,8-tetrahydro-1,8-naphthyridin-2-yl)butyl)amino) butanoic Acid], the IC50 lay in the range of 50 to 250 nM.

Turning to `COC[C@@H](F)CN(CCCCc1ccc2c(n1)NCCC2)CC[C@H](Nc1nc(-c2cccnc2)nc2ccccc12)C(=O)O` [Compound 109, (S)-4-(((S)-2-fluoro-3-methoxypropyl) (4-(5,6,7,8-tetrahydro-1,8-naphthyridin-2-yl)butyl)amino)-2-((2-(pyridin-3-yl)quinazolin-4-yl)amino) butanoic Acid], the IC50 was < 50 nM.

Regarding `O=C(O)[C@H](CCN(CCCCc1ccc2c(n1)NCCC2)CC(F)F)Nc1cc(-c2ccccc2)ncn1` [Compound 142, (S)-4-((2,2-difluoroethyl) (4-(5,6,7,8-tetrahydro-1,8-naphthyridin-2-yl)butyl)amino)-2-((6-phenylpyrimidin-4-yl)amino) butanoic Acid], the IC50 was > 1000 nM.

Take `COC[C@@H](F)CN(CCCCc1ccc2c(n1)NCCC2)CC[C@H](Nc1nc(C)nc2cc(F)ccc12)C(=O)O` [Compound 32, (S)-2-((7-fluoro-2-methylquinazolin-4-yl)amino)-4-(((S)-2-fluoro-3-methoxypropyl) (4-(5,6,7,8-tetrahydro-1,8-naphthyridin-2-yl)butyl)amino) butanoic Acid]: the IC50 is < 50 nM.

As to `O=C(O)[C@H](CCN(CCCCc1ccc2c(n1)NCCC2)CCOc1ccccc1)Nc1nc(-c2cccnc2)nc2ccccc12` [Compound 94, (S)-4-((2-phenoxyethyl) (4-(5,6,7,8-tetrahydro-1,8-naphthyridin-2-yl)butyl)amino)-2-((2-(pyridin-3-yl)quinazolin-4-yl)amino) butanoic Acid], the IC50 was < 50 nM.

Consider `COCCN(CCCCc1ccc2c(n1)NCCC2)CC[C@H](Nc1nc(C)nc2cc(F)ccc12)C(=O)O` [Compound 12, (S)-2-((7-fluoro-2-methylquinazolin-4-yl)amino)-4-((2-methoxyethyl) (4-(5,6,7,8-tetrahydro-1,8-naphthyridin-2-yl)butyl)amino) butanoic Acid], for which the IC50 is < 50 nM.

(Values after patent US10793564B2, “Amino acid compounds and methods of use” (Pliant Therapeutics, Inc., priority 2018, dated 2020).)
